Reference: patent US20240150755A1, “MODULATING REGULATORY T CELL FUNCTION IN AUTOIMMUNE DISEASE AND CANCER” (Salk Institute for Biological Studies, priority 2021, published 2024)

What was measured:
Assay type in all cases: cell-based, mouse
H3K27ac = H3K27ac ChIP-seq in Treg cells; conditions: sgRNA transduced Treg cells
Description: Treg cells were collected and cross-linked first in 3 mM disuccinimidyl glutarate (DSG) in 1×PBS for thirty minutes then in 1% formaldehyde for another ten minutes, both at RT, for chromatin binding protein ChIP or in 1% formaldehyde only for histone modification ChIP. After quenching the excess cross-linker with a final concentration of 125 mM glycine, the cells were washed in 1× PBS, pelleted, flash-frozen in liquid nitrogen, and stored at −80° C. Cell pellets were thawed on ice and incubated in lysis solution (50 mM HEPES-KOH pH 8, 140 mM NaCl, 1 mM EDTA, 10% glycerol, 0.5% NP40, 0.25% Triton X-100) for ten minutes. The isolated nuclei were washed with wash solution (10 mM Tris-HCl pH 8, 1 mM EDTA, 0.5 mM EGTA, 200 mM NaCl) and shearing buffer (0.1% SDS, 1 mM EDTA, 10 mM Tris-HCl pH 8) then sheared in a Covaris® E229 sonicator for ten minutes to generate DNA fragments between ˜200-1000 base pairs (bp). After clarification of insoluble material by centrifugation, the chromatin was immunoprecipitated overnight at 4° C. with antibodies against Foxp3, Smarca4, Brd9, Phf10 or H3K27ac. […]
Single-end 50 bp or paired-end 42 bp reads were aligned to mouse genome mm10 using STAR alignment tool (V2.5) (Dobin et al., Bioinformatics 29:15-21, 2013). […]

[1] = test system: Brd9-dependent Foxp3 binding sites; test: ATAC-seq chromatin accessibility in Treg cells; conditions: sgBrd9 vs sgNT Treg cells; 61/1699 sites
Description: ATAC-seq was performed according to previously published protocol (Corces et al., Nat Methods 14:959-962, 2017). Briefly, Tregs transduced with either sgNT or sgBrd9 were subjected to Ficoll™ gradient purification to remove dead cells and ensure capture of cells that were 99% viable. 50,000 Treg cells were collected in duplicates per genotype and washed first with cold 1×PBS then with Resuspension buffer (RSB; 10 mM Tris-HCl pH 7.4, 10 mM NaCl, 3 mM MgCl2). Cells were lysed in 50 μL of RSB supplemented with 0.1% NP40, 0.01% Digitonin and 0.1% Tween 20 for 3 minutes on ice then diluted with 1 mL of RSB with 0.1% Tween 20. […]
ATAC-seq data analysis used the following tools and versions: cutadapt (v2.4), samtools (v1.9), Picard (v1.7.1), BWA (v0.7.12), macs2 (v2.1.2), and HOMER (v4.11). Paired end 42 bp reads were trimmed using cutadapt to remove Nextera™ adapter sequences then aligned to the reference mouse genome mm10 using BWA. The following were filtered out using Picard and samtools: duplicate reads, mitochondrial reads, low quality reads (Q<20), and improperly paired or unpaired reads. Quality was assessed by calculating Fraction of Reads In Peaks ([…]) which were >40% for all samples. TSS enrichment was determined using mm10 Refseq TSSs. […]

Treg cells = test: In vitro Treg suppression assay; conditions: sgRNA transduced Treg cells plus MIGR-Foxp3
Source text: Treg cells were transduced by retrovirus expressing sgRNA targeting gene of interest and cultured in X-VIVO® complete media supplemented with IL-2 (500 U/ml). Four days after transduction, transduced cells were […] a fluorescence-activated cell sorter (FACS). CD45.1+ naive CD4 T cells (CD4^+CD25^−CD44^loCD62^hi) were labeled with CellTrace™ Violet (Thermo Fisher Scientific #C34571) in different ratio in the presence of irradiated T cell depleted spleen cells as antigen-presenting cells (APC). Three days later, Treg suppression function was measured by the percentage of non-dividing cells within the CD45.1^+ effector T cell population. For dBRD9 treatment experiment, dBRD9 was first dissolved in DMSO (10 mM stock) and added into Treg:Teff:APC mixture at 2.5 μM. For Foxp3 overexpression rescue experiment, Treg cells were first transduced with sgNT or sgBrd9 at 24 hour post-activation, and then transduced with MIGR empty vector or MIGR-Foxp3 at 48 hour post-activation. Double transduced Treg cells were FACS sorted on day 4 based on NGFR+ and GFP+ markers and then mixed with CellTrace™ labeled effector T cells in the presence of APC. Treg suppression readout was measured after three days of co-culture.

Substance: sgBrd9: sgRNA targeting Brd9, ATTAACCGGTTTCTCCCGGG (SEQ ID NO: 12) (expressed or natural sequence)
- H3K27ac at Brd9-dependent Foxp3 sites (H3K27ac): reduction in H3K27ac
- Brd9-dependent Foxp3 binding sites with significant reduction in chromatin accessibility [1]: 3.5%
- Treg suppressor activity with ectopic expression of Foxp3 (Treg cells): partially restored Treg suppressor activity to a level comparable to sgNT controls
